Test results published in paper PMC6222706, “Evaluation of the Antioxidant and Neuroprotectant Activities of New Asymmetrical 1,3-Diketones” (Molecules : A Journal of Synthetic Chemistry and Natural …, 2018).

Assay: ABTS radical scavenging assay
Type: biochemical
Conditions: 30 min incubation, EtOH, absorbance at 734 nm
Procedure: ABTS^+ radical was produced by reacting 2,2′-azino-bis-3-ethylbenzthiazoline-6-sulphonic acid (ABTS) 7 mM with K2S2O8 2.45 mM, both reactants dissolved in water, and at the volume ratio of 1:1. The mixture was stored in the dark at room temperature for 16 h. The ABTS^+ solution was diluted to give an absorbance of 0.750 ± 0.025 at 734 nm in EtOH. All the compounds tested were dissolved in EtOH. 150 µL of each compound solution was added to the wells of the 96-well plate, followed by the addition of 50 µL of the ABTS^+ radical solution. Final compound concentrations tested were 0, 5, 10, 20, 50, 100, 150, 200 µM. The absorbance change at 734 nm was recorded after 30 min incubation in the dark, and the percentage of radical scavenging was calculated for each concentration relative to a blank containing no scavenger. The degree of decolorization was calculated as the percentage reduction of absorbance. The ABTS^+ radical scavenging activity was calculated as follows: Percentage ABTS^+ radical scavenging activity = {1 − [As/Ac]} × 100(1) where As is the absorbance of the ABTS^+ radical solution containing samples and Ac the absorbance of the control solution without antioxidant. The percentages of ABTS^+ radical reduced were plotted against compound concentration. Trolox was used as a reference antioxidant. All the assays were carried out three times by quadruplicate for each compound.

SMILES	IC50
Cc1c(C)c2c(c(C)c1O)CCC(C)(C(=O)O)O2 (centres unmarked) [Trolox, reference compound]	34 ± 2.3 µM
O=C(/C=C(O)/C=C/c1ccc(O)cc1F)c1ccccc1 [Compound 4a, (2Z,4E)-5-(2-fluoro-4-hydroxyphenyl)-3-hydroxy-1-phenylpenta-2,4-dien-1-one]	108 ± 7.6 µM
COc1cc(/C=C/C(O)=C/C(=O)C(F)(F)F)ccc1F [Compound 2b, (3Z,5E)-1,1,1-trifluoro-6-(4-fluoro-3-methoxyphenyl)-4-hydroxyhexa-3,5-dien-2-one]	> 600 µM
O=C(/C=C(O)/C=C/c1ccc(O)c(F)c1)C(F)(F)F [Compound 3b, (3Z,5E)-1,1,1-trifluoro-6-(3-fluoro-4-hydroxyphenyl)-4-hydroxyhexa-3,5-dien-2-one]	113 ± 12.4 µM
COc1cc(/C=C/C(O)=C/C(=O)C(F)(F)F)ccc1O [Compound 1b, (3Z,5E)-1,1,1-trifluoro-4-hydroxy-6-(4-hydroxy-3-methoxyphenyl)hexa-3,5-dien-2-one]	34.6 ± 2.7 µM

Same assay, conditions: Trolox Equivalent Antioxidant Capacity vs 100 µM solution of the substance, from ABTS assay

SMILES	ABTS-TEAC100
Cc1c(C)c2c(c(C)c1O)CCC(C)(C(=O)O)O2 (centres unmarked) [Trolox, reference compound]	1
O=C(/C=C(O)/C=C/c1ccc(O)cc1F)c1ccccc1 [Compound 4a, (2Z,4E)-5-(2-fluoro-4-hydroxyphenyl)-3-hydroxy-1-phenylpenta-2,4-dien-1-one]	0.40
COc1cc(/C=C/C(O)=C/C(=O)C(F)(F)F)ccc1F [Compound 2b, (3Z,5E)-1,1,1-trifluoro-6-(4-fluoro-3-methoxyphenyl)-4-hydroxyhexa-3,5-dien-2-one]	0.23
O=C(/C=C(O)/C=C/c1ccc(O)c(F)c1)C(F)(F)F [Compound 3b, (3Z,5E)-1,1,1-trifluoro-6-(3-fluoro-4-hydroxyphenyl)-4-hydroxyhexa-3,5-dien-2-one]	0.67
COc1cc(/C=C/C(O)=C/C(=O)C(F)(F)F)ccc1O [Compound 1b, (3Z,5E)-1,1,1-trifluoro-4-hydroxy-6-(4-hydroxy-3-methoxyphenyl)hexa-3,5-dien-2-one]	0.73

Assay: FRAP (Ferric Reducing Antioxidant Power) assay
Type: biochemical
Conditions: Trolox Equivalent Antioxidant Capacity vs 100 µM solution of the substance, from FRAP assay
Procedure: The assay was carried out according to the method of Benzie et al. with slight modifications, in a 96-well microplate. FRAP reagent was prepared by mixing 10 mL of 300 mM acetate buffer with 1 mL of 10 mM 2,4,6-tripyridyl-S-triazine (TPTZ) in HCl 40 mM and 1mL of FeCl3·6H2O 20 mM. Firstly, 190 µL of the FRAP reagent were added to all wells of the 96-well plate, followed by the addition to the well of 10 µL of the test compounds dissolved in Ethanol to reach the final concentrations assayed (0, 5, 10, 20, 50, 100, 150, 200 µM). After 30 min incubation in the dark, the absorbance was read at 593 nm. Trolox was used as assay control. Three different assays were carried out by quadruplicate for each compound.

SMILES	FRAP-TEAC100
Cc1c(C)c2c(c(C)c1O)CCC(C)(C(=O)O)O2 (centres unmarked) [Trolox, reference compound]	1
O=C(/C=C(O)/C=C/c1ccc(O)cc1F)c1ccccc1 [Compound 4a, (2Z,4E)-5-(2-fluoro-4-hydroxyphenyl)-3-hydroxy-1-phenylpenta-2,4-dien-1-one]	0.15
COc1cc(/C=C/C(O)=C/C(=O)C(F)(F)F)ccc1F [Compound 2b, (3Z,5E)-1,1,1-trifluoro-6-(4-fluoro-3-methoxyphenyl)-4-hydroxyhexa-3,5-dien-2-one]	0.03
O=C(/C=C(O)/C=C/c1ccc(O)c(F)c1)C(F)(F)F [Compound 3b, (3Z,5E)-1,1,1-trifluoro-6-(3-fluoro-4-hydroxyphenyl)-4-hydroxyhexa-3,5-dien-2-one]	0.34
COc1cc(/C=C/C(O)=C/C(=O)C(F)(F)F)ccc1O [Compound 1b, (3Z,5E)-1,1,1-trifluoro-4-hydroxy-6-(4-hydroxy-3-methoxyphenyl)hexa-3,5-dien-2-one]	0.64

Same assay, conditions: at 100 µM, 30 min, 593 nm

SMILES	FRAP Assay (%) at 100 µM
Cc1c(C)c2c(c(C)c1O)CCC(C)(C(=O)O)O2 (centres unmarked) [Trolox, reference compound]	53.0%
O=C(/C=C(O)/C=C/c1ccc(O)cc1F)c1ccccc1 [Compound 4a, (2Z,4E)-5-(2-fluoro-4-hydroxyphenyl)-3-hydroxy-1-phenylpenta-2,4-dien-1-one]	9.8%
COc1cc(/C=C/C(O)=C/C(=O)C(F)(F)F)ccc1F [Compound 2b, (3Z,5E)-1,1,1-trifluoro-6-(4-fluoro-3-methoxyphenyl)-4-hydroxyhexa-3,5-dien-2-one]	1.9%
O=C(/C=C(O)/C=C/c1ccc(O)c(F)c1)C(F)(F)F [Compound 3b, (3Z,5E)-1,1,1-trifluoro-6-(3-fluoro-4-hydroxyphenyl)-4-hydroxyhexa-3,5-dien-2-one]	19.7%
COc1cc(/C=C/C(O)=C/C(=O)C(F)(F)F)ccc1O [Compound 1b, (3Z,5E)-1,1,1-trifluoro-4-hydroxy-6-(4-hydroxy-3-methoxyphenyl)hexa-3,5-dien-2-one]	36.6%

Same assay, conditions: at 200 µM, 30 min, 593 nm

SMILES	FRAP Assay (%) at 200 µM
Cc1c(C)c2c(c(C)c1O)CCC(C)(C(=O)O)O2 (centres unmarked) [Trolox, reference compound]	100.0%
O=C(/C=C(O)/C=C/c1ccc(O)cc1F)c1ccccc1 [Compound 4a, (2Z,4E)-5-(2-fluoro-4-hydroxyphenyl)-3-hydroxy-1-phenylpenta-2,4-dien-1-one]	14.3%
COc1cc(/C=C/C(O)=C/C(=O)C(F)(F)F)ccc1F [Compound 2b, (3Z,5E)-1,1,1-trifluoro-6-(4-fluoro-3-methoxyphenyl)-4-hydroxyhexa-3,5-dien-2-one]	3.1%
O=C(/C=C(O)/C=C/c1ccc(O)c(F)c1)C(F)(F)F [Compound 3b, (3Z,5E)-1,1,1-trifluoro-6-(3-fluoro-4-hydroxyphenyl)-4-hydroxyhexa-3,5-dien-2-one]	32.6%
COc1cc(/C=C/C(O)=C/C(=O)C(F)(F)F)ccc1O [Compound 1b, (3Z,5E)-1,1,1-trifluoro-4-hydroxy-6-(4-hydroxy-3-methoxyphenyl)hexa-3,5-dien-2-one]	61.4%

Assay: DPPH radical scavenging assay
Type: biochemical
Conditions: antioxidant concentration that decreases initial DPPH^• concentration by 50%; 30 min, 517 nm
Procedure: The assay was performed in a 96-well microplate. A 0.2 mM solution of 2,2-diphenyl-1-picryl-hydrazyl-hydrate (DPPH) in ethanol was prepared. All the compounds tested were dissolved in EtOH. Firstly, 150 µL of each compound solution was added to the wells of the 96-well plate, followed by the addition of 50 µL of the DPPH solution. Final compound concentrations tested were 0, 5, 10, 20, 50, 100, 150, 200 µM. The change in absorbance at 517 nm was measured after 30 min incubation in the dark. The free radical scavenging activity was calculated as inhibition using the following Equation (2): Percentage DPPH radical scavenging activity = {1 − [As/Ac]} × 100(2) where As is the absorbance of the DPPH solution containing samples and Ac the absorbance of the control solution without antioxidant but with DPPH. The percentages of DPPH reduced were plotted against compound concentration. The experiment was also conducted using Trolox as reference antioxidant. Assays were performed three times by quadruplicate for each compound.

SMILES	IC50
Cc1c(C)c2c(c(C)c1O)CCC(C)(C(=O)O)O2 (centres unmarked) [Trolox, reference compound]	19 ± 1.8 µM
COc1cc(/C=C/C(O)=C/C(=O)C(F)(F)F)ccc1O [Compound 1b, (3Z,5E)-1,1,1-trifluoro-4-hydroxy-6-(4-hydroxy-3-methoxyphenyl)hexa-3,5-dien-2-one]	53.8 ± 2.6 µM

Assay: Cytotoxicity in SH-SY5Y cells (MTT)
Type: cell-based
Conditions: human, SH-SY5Y neuronal cells, concentration reducing cell viability to 50% of control
Procedure: So, to study the neuroprotectant potential of β-diketones in the SH-SY5Y cell line, we firstly need to determine their cytotoxicity in the same cellular model. […] In addition to that, within each series, the introduction of a second fluorine atom in the left-hand side phenyl ring decreases also the cytotoxicity.
SH-SY5Y cells were seeded into 96-well plates at a density of 5 × 10^3 cells/well and grown in the incubator for 24 h. All compounds tested were dissolved and eventually further diluted in dimethylsulfoxide (DMSO). After overnight incubation, the cells were treated with different test concentrations (5, 10, 20, 50, 100, 150, 200 µM) in a final volume of 200 µL with four replicates each. […] Cell proliferation or viability was measured using the 3-(4,5-dimethylthiazol-2-yl)-2,5-diphenyl tetrazolium bromide (MTT) assay. After 24 h, 20 µL of MTT (5 mg/mL) was added to each well and the plate was incubated at 37 °C in the dark for 2 h. Supernatants were removed and the formazan crystals were solubilized in DMSO (200 µL/well), under 10 min shaking at room temperature. The reduction of MTT was quantified by absorbance at 570 nm Varioskan microplate reader (Thermo Fisher Scientific, Vantaa, Finland). Effects of the test compounds on cell viability were calculated using cells treated with vehicle as control. The data were subjected to linear regression analysis and the regression lines were plotted for the best fit. The IC50 (inhibition of cell viability) concentrations were calculated using the respective dose-response curves.

SMILES	IC50 at 24 h
O=C(/C=C(O)/C=C/c1ccc(O)cc1F)c1ccccc1 [Compound 4a, (2Z,4E)-5-(2-fluoro-4-hydroxyphenyl)-3-hydroxy-1-phenylpenta-2,4-dien-1-one]	104 ± 7.1 µM
COc1cc(/C=C/C(O)=C/C(=O)C(F)(F)F)ccc1F [Compound 2b, (3Z,5E)-1,1,1-trifluoro-6-(4-fluoro-3-methoxyphenyl)-4-hydroxyhexa-3,5-dien-2-one]	88 ± 4.5 µM
O=C(/C=C(O)/C=C/c1ccc(O)c(F)c1)C(F)(F)F [Compound 3b, (3Z,5E)-1,1,1-trifluoro-6-(3-fluoro-4-hydroxyphenyl)-4-hydroxyhexa-3,5-dien-2-one]	109 ± 7.6 µM
COc1cc(/C=C/C(O)=C/C(=O)C(F)(F)F)ccc1O [Compound 1b, (3Z,5E)-1,1,1-trifluoro-4-hydroxy-6-(4-hydroxy-3-methoxyphenyl)hexa-3,5-dien-2-one]	102 ± 5.6 µM

Assay: Iron chelation capacity (Fe^+2-ferrozine complex)
Type: biochemical
Conditions: all experiments, both 50 and 200 µM
Procedure: To decrease the level of free Fe^2+ that can reduce H2O2 to the ^•OH radical and produce other ROS, it is worth to evaluate the iron chelation capacity of new potential AOX compounds as potential new therapeutic agents against neurodegenerative diseases. […] In this assay ferrozine form complexes with Fe^+2 in a quantitative manner, and in the presence of chelating compounds this complex is disrupted.
The iron chelation capacity was determined according to the method of Dinis et al., using ferrous chloride instead of ferrous sulfate. In this method, ferrozine can form complexes with a ferrous ion in a quantitative way yielding a red color with maximum absorbance at 562 nm. In the presence of other iron chelators, a decoloration is observed due to the competition with ferrozine for the metal. The assay was carried out in a 96 well plate. Serial dilutions of test compound (0, 5, 10, 25, 50, 100, 150, 200 µM) were dispensed (180 µL) into each well and then 10 µL of FeCl2 1 mM were added (final FeCl2 concentration, […]). After shaking the plate for 1 min, 10 µL of Ferrozine 2 mM were added. The mixture was shaken thoroughly and left to stand for 20 min at room temperature. The absorbance was measured at 562 nm with a Varioskan microplate reader. […] The compound iron chelation activity was calculated as the percentage of inhibition of the Fe^+2-Ferrozine complex by the formula in Equation (3):%Inhibition = {(Ao − As)/Ao} × 100(3) where Ao is the absorbance of the control, and As is the absorbance in the presence of the test compound. EDTA was used as a positive control. All the experiments were performed three times by quadruplicate for each compound concentration.

SMILES	Inhibition of the Fe^+2-Ferrozine complex
O=C(O)CN(CCN(CC(=O)O)CC(=O)O)CC(=O)O [EDTA, reference compound]	completely inhibits
